The source of these data is publication PMC5554220, “A Novel Aldosterone Antagonist Limits Renal Injury in 5/6 Nephrectomy” (Scientific Reports, 2017).

The subject of data set [1] is rats with 5/6 renal ablation (Nx). Description: Protocol 1 (early treatment), 5/6 renal ablation (Nx). Format: in vivo, male Munich-Wistar rats. The text has this:
(§1) One-hundred forty-five adult male Munich-Wistar rats, obtained from a local facility at the Faculty of Medicine, University of São Paulo, weighing between 220 and 250 g, were used in this study. All experimental procedures were approved by the local Research Ethics Committee (Comissão de Ética para Análise de Projetos de Pesquisa do Hospital das Clínicas da Faculdade de Medicina da Universidade de São Paulo, CAPPesq, process n° 0905/09), and carried out following strictly our institutional guidelines and current international standards for manipulation and care of laboratory animals. Body weights and general conditions were assessed daily. Five-sixths renal ablation (Nx) was performed as a single-step procedure under anesthesia with ketamine 50 mg/kg and xylazine 10 mg/kg im. After ventral laparotomy, the right kidney was excised and two or three branches of the left renal artery were ligated, so as to promote infarction of two-thirds of the left kidney. The operation was invariably well tolerated. Sham-operated rats underwent anesthesia and manipulation of the renal pedicles without removal of renal mass. After surgery, rats received enrofloxacin and, upon recovery, had free access to tap water and regular rodent chow containing 0.5 Na and 22% protein (Nuvital Labs, Curitiba, Brazil), and were kept at 23 ± 1 °C and 60 ± 5% relative air humidity, under an artificial 12–12 hour light/dark cycle. Rats were then treated following two different experimental protocols (described later).
In this first protocol, Nx rats were divided into groups: NX + V (N = 8), receiving vehicle; NX + Eple (N = 8), receiving oral (mixed with the chow) Eple, 150 mg/kg/day; and Nx + Ly (N = 8), receiving oral Ly, 20 mg/kg/day. A group of sham-operated rats (S, N = 7) was also studied. Treatments were started 24 h after surgery. Rats were followed during 60 days, with determination of TCP and UalbV on Days 30 and 60. TCP was assessed with an optoelectronic automated device (Visitech Systems, Apex, NC), after rats had been preconditioned so as to remain calm during the procedure. UalbV was measured with a conventional immunodiffusion technique. On Day 60, rats were anesthetized as described before, and blood was collected from the abdominal aorta for determination of serum creatinine, serum K^+, PRA and PAC. The remnant kidney was then perfusion-fixed with Duboscq-Brazil solution after a brief washout with saline to remove blood from renal vessels, and prepared for histomorphometric and immunohistochemical analyses using conventional sequential techniques.
(§2) Histomorphometric analysis was performed blindly by two independent observers. The extent of glomerular injury was estimated, in PAS-stained sections, by determining the percentage of glomeruli with sclerotic lesions. The fraction of the renal cortical area occupied by interstitial tissue (%INT) was estimated in 25 consecutive microscopic fields of Masson-stained sections by a point-counting technique, at a final magnification of 200X, under a 144-point grid.
PRA and PAC were determined using commercially available radioimmunoassay kits (Renin Active IRMA and Aldosterone Active RIA, Beckman Coulter, Carlsbad, CA).

In another data set the test system is Nx rats. Description: Preliminary experiments to determine the doses of Eple and Ly. Format: in vivo. As to the method:
Preliminary experiments were performed to exclude the possibility that any differences between Eple and Ly, both in monotherapy and as add-ons to L, were simply due to the use of inadequately low doses of either compound. In the first set of experiments, Nx rats received Eple at the recommended dose of 85 mg/kg, and at 150 mg/kg, higher than in most studies reported so far. […] Other Nx rats received Ly at either 12 mg/kg (the recommended dose) or 20 mg/kg. […] Based on these preliminary results, we set the doses of Eple and Ly at 150 mg/kg and 20 mg/kg, respectively.

The test system of data set [2] is rats with 5/6 renal ablation (Nx). Description: Protocol 2 (late treatment), 5/6 renal ablation (Nx). Format: in vivo, male Munich-Wistar rats.
From the text: as §1
In Protocol 2, adult male Munich-Wistar rats were subjected to Nx as described earlier, and left untreated for two months. At this time, TCP and UalbV were assessed as described earlier. Rats with TCP ≤ 170 mmHg or UalbV ≤ 40 mg/day were excluded from the study. The remaining […] Nx rats were divided into four experimental groups: Nx + V (N = 14), untreated Nx rats; Nx + L (N = 15), receiving oral L, 50 mg/kg in drinking water; Nx + L + Eple (N = 14), receiving L and Eple (N = 14), 150 mg/kg/day; and Nx + L + Ly (N = 14), receiving L and Ly (20 mg/kg/day) as described before. A group of S rats (N = 16) was also included. All groups were followed for 90 days after treatments were started (150 days after nephrectomy), with monthly measurement of TCP and UalbV. At the end of this period, rats were anesthetized, blood was collected, and the renal tissue was perfusion-fixed and prepared for histomorphometric and immunohistochemical examination in the same manner as for Protocol 1.
as §2
Immunohistochemistry was performed on 4-μm-thick sections, mounted on glass slides precoated with 2% silane. Sections were deparaffinized and rehydrated by conventional techniques, then heated in citrate buffer for antigen retrieval and incubated overnight with the primary antibody at 4 °C (no antibody in negative control experiments). Primary antibodies used were: monoclonal mouse anti-rat ED-1 (Serotec, Oxford, UK); polyclonal rabbit anti-human AngII (Peninsula Laboratories, San Carlos, CA); and polyclonal rabbit anti-collagen I (Abcam, Cambridge, UK).
For ED-1 detection, sections were preincubated with 5% normal rabbit serum to prevent nonspecific binding, then incubated overnight at 4 °C with the primary antibody diluted in BSA at 1%. […]

In data set [3] the target is T1, human glucocorticoid receptor (hGR) (Homo sapiens, UniProt P04150).
T1 construct: expressed in transfected cells; host or cells: HEK293 cells
T1 sequence (P04150 1-777): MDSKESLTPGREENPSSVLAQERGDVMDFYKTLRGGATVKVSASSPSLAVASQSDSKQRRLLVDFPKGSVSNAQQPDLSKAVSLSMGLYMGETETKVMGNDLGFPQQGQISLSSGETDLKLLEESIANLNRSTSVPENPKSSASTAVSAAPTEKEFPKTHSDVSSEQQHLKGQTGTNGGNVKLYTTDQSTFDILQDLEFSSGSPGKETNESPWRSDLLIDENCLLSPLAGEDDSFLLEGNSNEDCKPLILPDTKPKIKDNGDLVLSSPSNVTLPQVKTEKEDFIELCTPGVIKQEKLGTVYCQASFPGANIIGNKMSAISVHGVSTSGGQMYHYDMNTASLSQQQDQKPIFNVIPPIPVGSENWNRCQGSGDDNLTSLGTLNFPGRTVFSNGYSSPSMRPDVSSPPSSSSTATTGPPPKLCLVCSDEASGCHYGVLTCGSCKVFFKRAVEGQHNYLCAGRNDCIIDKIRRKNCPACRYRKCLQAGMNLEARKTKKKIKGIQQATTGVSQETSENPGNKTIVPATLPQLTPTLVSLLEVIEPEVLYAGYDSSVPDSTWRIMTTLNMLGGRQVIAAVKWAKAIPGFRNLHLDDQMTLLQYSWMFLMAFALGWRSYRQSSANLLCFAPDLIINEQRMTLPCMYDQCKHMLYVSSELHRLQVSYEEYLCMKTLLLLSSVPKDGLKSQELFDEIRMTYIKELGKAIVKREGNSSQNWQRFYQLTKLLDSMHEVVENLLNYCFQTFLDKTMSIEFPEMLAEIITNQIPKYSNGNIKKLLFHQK
The data set can be described thus: Radioligand binding, hGR expressed in HEK293 cells. Particulars: hGR expressed in HEK293 cells; read-out: Mean Ki ± SEM hGR*. The method, then:
Affinity of ligands to the soluble receptor was determined using vacuum filtration methods, preparing soluble receptors in 96-well Falcon polystyrene plates (BD Biosciences, Bedford, MA) in a total volume of 250 μl. The hMR Sf9 lysate (approximately 20–25 μg protein in 20 μl) was incubated in the absence or presence of competing ligands with 10 μl of [1,2,6,7-3H] […] Binding studies for ligands for hPR and hAR were determined using [1,2,6,7-3H(N)] Progesterone (specific activity 103 Ci/mmol, at a final concentration 0.5 nM; NET381, NEN/Perkin Elmer Life Sciences, Boston, MA) and [17α-methyl-3H] Mibolerone, an enzymaticaly stable analog of testosterone (specific activity 76.8 Ci/mmol, final concentration 0.3 nM; NET919, NEN), respectively. Specific binding of 3H-progesterone for hPR and 3H-mibolerone for hAR was determined in the presence and absence of 1 μM mifepristone. Inhibition constants (Ki), were determined either from the Cheng-Prusoff equation[32], or directly using non-linear regression curve fitting to a three-parameter one-site competitive equation. Ki values obtained from individual concentration response curves were reported as the mean ± SEM. Protein was measured using colorimetric detection and quantification of bicinchoninic acid (BCA Protein Assay, Pierce, Rockford, IL). Cos-7L cells were cotransfected with expression vectors and a reporter plasmid responsive to all 3 nuclear hormone receptors. pBluescript II SK (+) (Stratagene, San Diego, CA) was included as a source of carrier DNA. The number of repetitions of full concentration response curves (n) represents values from at least two independent experiments for each condition. Concentration response curves were analyzed statistically using a four-parameter logistic equation (Hill equation for sigmoid curves). Similar methodology was adopted for the human glucocorticoid receptor (hGR) expressed in HEK293 cells.

For `COC(=O)[C@@H]1CC2=CC(=O)CC[C@]2(C)[C@@]23O[C@@H]2C[C@@]2(C)[C@@H](CC[C@@]24CCC(=O)O4)[C@H]13` [Eplerenone, eplerenone, reference compound], in data set [1] (60 days after ablation, Eple 150 mg/kg/day, Ly 20 mg/kg/day oral), the “Albumin excretion rate (UalbV)” value was “slightly, but not significantly, attenuated”. For the same molecule, in data set [1] (Day 60), the “Fractional cortical interstitial area” value is given as “only slightly attenuated”, the “Left kidney weight corrected for body weight (renal hypertrophy)” value is listed as “no effect on renal weight” and the “Plasma aldosterone concentration (PAC)” value was “exacerbated hyperaldosteronemia”. For the same molecule, in data set [1] (Day 60, versus Nx + V), the “Plasma K+ levels” value is recorded as “not aggravated”. Besides, in data set [1] (Eple 150 mg/kg/day, Ly 20 mg/kg/day oral), the “Tail-cuff pressure (TCP)” value is reported as “partially prevented the elevation of TCP”. The “Maximal nontoxic dose, defined by stunting of body growth” value in the data set with Nx rats was 150 mg/kg. Besides, the “Dose-response effect on the parameters studied” value in the data set with Nx rats (Eple 85 mg/kg vs 150 mg/kg) was “No dose-response effect was observed”. Moreover, the PRA result with Nx rats (Eple 150 mg/kg dose vs 85 mg/kg) is listed as “slight increase in PRA”. Also, in the data set with Nx rats (Eple, dose higher than 150 mg/kg), the Body growth entry was “body growth limitation”. For the same molecule, the “Plasma renin activity (PRA)” value in data set [2] (Day 150) was “significantly elevated compared to S, Nx and Nx + L”.

Take `CCCCc1nc(Cl)c(CO)n1Cc1ccc(-c2ccccc2-c2nn[nH]n2)cc1` [L, losartan]: in data set [2] (Day 150), the “Density of interstitial AngII+ cells” value is on record as “not significantly altered”, the Interstitial macrophage infiltration result is on record as “numerically but not significantly reduced”, the “Percent cortical area occupied by collagen I (interstitial fibrosis)” value is on record as “failed to reduce significantly” and the “Percentage of glomeruli with sclerotic lesions (GS%)” value was “partly prevented GS”. In addition, in data set [2] (Day 150), the “Plasma aldosterone concentration (PAC)” value is “significantly reduced PAC compared to S or Nx + V” and the “Plasma renin activity (PRA)” value is “normalized PRA”. Further, in data set [2] (treatment Day 60-150), the “Albumin excretion rate (UalbV)” value is on record as “prevented the progression of albuminuria”. In addition, the “Tail-cuff pressure (TCP)” value in data set [2] (treatment Day 60-150, L 50 mg/kg, Eple 150 mg/kg/day, Ly 20 mg/kg/day) is reported as “mitigated”.

On to `CC(=O)S[C@@H]1CC2=CC(=O)CC[C@]2(C)[C@H]2CC[C@@]3(C)[C@@H](CC[C@@]34CCC(=O)O4)[C@H]12` [Spironolactone, spironolactone, reference compound], for which, in data set [3], the Ki (in general, a measure of affinity in units of concentration, obtained from inhibition or displacement) stood at 33 ± 7 nM.
